These results are taken from article PMC5537346, “Characterisation and pharmacological analysis of a crustacean G protein-coupled receptor: the red pigment-concentrating hormone receptor of Daphnia pulex” (Scientific Reports, 2017).

“Also recorded” adds a separate entry of the source. Where two headings read alike, the source gives them in different places. Where a SMILES comes first, the peptide text is derived from it. [ ]: non-standard residue; d: D form. pGlu = O=C1CC[C@@H](C(=O)O)N1

Assay [1] addresses T1, Dappu-RPCHR (Daphnia pulex RPCH receptor) (Daphnia pulex, UniProt A0A240FBD5).
T1 sequence (A0A240FBD5 1-451): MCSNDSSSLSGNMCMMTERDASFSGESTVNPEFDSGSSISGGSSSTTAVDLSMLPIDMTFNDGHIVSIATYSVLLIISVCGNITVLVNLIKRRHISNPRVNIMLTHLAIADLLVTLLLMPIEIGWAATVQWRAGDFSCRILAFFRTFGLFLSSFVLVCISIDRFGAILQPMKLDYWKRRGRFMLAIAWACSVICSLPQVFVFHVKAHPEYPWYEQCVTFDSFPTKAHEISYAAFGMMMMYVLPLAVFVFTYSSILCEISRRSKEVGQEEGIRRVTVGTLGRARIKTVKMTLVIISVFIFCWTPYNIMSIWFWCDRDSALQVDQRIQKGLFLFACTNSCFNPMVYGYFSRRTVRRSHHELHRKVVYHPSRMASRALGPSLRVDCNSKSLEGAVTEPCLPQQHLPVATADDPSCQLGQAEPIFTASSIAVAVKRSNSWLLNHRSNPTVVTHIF
Nature of the assay: in vitro cell-based bioluminescence (aequorin Ca2+) assay on Dappu-RPCHR expressing CHO-WTA11 cells. As to conditions: for fold lower affinity / potency relative to Dappu-RPCH: from EC50 values. As for the experimental part:
Pharmacological analyses were performed in Chinese hamster ovary (CHO) WTA11 cells stably co-expressing the bioluminescent protein apoaequorin and the promiscuous Gα16 subunit, which couples most agonist-induced GPCRs to the phospholipase C and Ca^2+ pathway, irrespective of their natural signalling cascade.
CHO-WTA11 cells were cultured in monolayers in Dulbecco’s Modified Eagles Medium nutrient mixture F12-Ham (DMEM/F12) with L-glutamine, 15 mM HEPES, sodium bicarbonate and phenol red (Sigma-Aldrich) supplemented with 100 IU/ml penicillin and 100 µg/ml streptomycin (Gibco), 10% heat-inactivated fetal bovine serum (Gibco) and […] zeocin (Gibco). All cells were maintained in an incubator at 37 °C with a constant supply of 5% CO2.
Transfections with pcDNA3.1-Dappu-RPCHR or empty pcDNA3.1 vector were carried out in T75 flasks at 60–80% confluency. Transfection medium was prepared using the Lipofectamine LTX Kit (Invitrogen) with 2.5 ml Opti-MEM® (Gibco), 12.5 µl PlusTM Reagent and 5 µg vector construct in 5 ml polystyrene round-bottom tubes. After a 5 min incubation period at room temperature, 30 µl LTX was added to the medium. After a further incubation period of 30 min at room temperature, the medium was removed and DNA/LTX mix was added dropwise to the cells followed by 3 ml of fresh complete medium.
Following transfection, cells were incubated overnight (37 °C, 5% CO2), then 10 ml of cell medium was added followed by a second overnight incubation (37 °C, 5% CO2). Ligand-induced changes in intracellular Ca^2+ were then monitored in the cells as described below.
CHO-WTA11 cells transfected with receptor construct (or empty vector) plasmid were detached with PBS, complemented with 0.2% EDTA (pH 8.0), and rinsed off the flask with DMEM/F12 with L-glutamine and 15 mM HEPES (Sigma-Aldrich). The number of viable and nonviable cells was determined using a TC20 automated Cell Counter (BIO-RAD). The cells were pelleted for 5 minutes at 800 rpm and resuspended to a density of 5.10^6 cells/ml in sterile filtered bovine serum albumin (BSA) medium (DMEM/F12 with L-glutamine and 15 mM Hepes, supplemented with 0.1% BSA) and loaded with 5 µM Coelenterazine_h (Invitrogen) for 4 h in the dark, at room temperature, while gently shaking to reconstitute the holo-enzyme aequorin. After a 10-fold dilution, cell solution (50 µl) was delivered to each well in a 96-well plate (~25000 cells/well) and cells were exposed to potential ligands reconstituted in BSA medium and distributed across the plate. In every row, BSA medium alone was placed in one well to serve as the negative control (blank). The Ca^2+ response was recorded for 30 s on a Mithras LB 940 (Berthold Technologies). After 30 s, 0.1% Triton X-100, a non-ionic surfactant, was added to the same well to measure the total cellular Ca^2+ response. The total response (ligand + Triton X-100), which is directly related to the number of cells present in the well, was used to normalise the response. The response of each negative control was subtracted from the luminescence obtained for wells within the same row. Calculations were made using the output file from the Microwin software (Berthold Technologies) in Excel (Microsoft). Further analysis was done in GraphPad Prism 5.

In a further assay the test system is Palaemon pacificus. The arrangement: method as in PMID 19686751. The following applies: in vivo, shrimp Palaemon pacificus; cited from earlier work.
For a further assay, the system named is Nezara viridula. The arrangement: method as in PMID 19686751. The following applies: in vivo; cited from earlier work.
[2] abbreviates: Table 1, AKH/RPCH and related peptides, calculated from dose-response curves.
[3] abbreviates: Table 2, analogues of Dappu-RPCH.

A word on the EC50: it is the concentration that produces a half-maximal response. For `CC(C)[C@H](NC(=O)[C@@H]1CCC(=O)N1)C(=O)N[C@@H](CC(N)=O)C(=O)N[C@@H](Cc1ccccc1)C(=O)N[C@@H](CO)C(=O)N[C@H](C(=O)N[C@@H](CO)C(=O)N[C@@H](Cc1c[nH]c2ccccc12)C(N)=O)[C@@H](C)O` [Dappu-RPCH, pQVNFSTSWamide] ([pGlu]VNFSTSW-NH2), the results for the EC50 in assay [1], in assay [1] (setting [2]) and in assay [1] (setting [3]) were 0.065 nM, 0.0645 nM and 0.0645 nM, respectively. In addition, the “concentration at which full activity was achieved” value in assay [1] is 0.1 nM. Also, the “effect on pigment migration in a decapod crustacean” value in the assay with Palaemon pacificus is on record as “could not affect pigment migration”. In the assay on Nezara viridula, the “biological activity in the green stink bug” value is on record as “caused measurable biological activity”.

Take `CC(C)[C@H](NC(=O)[C@@H]1CCC(=O)N1)C(=O)N[C@@H](CC(N)=O)C(=O)N[C@@H](Cc1ccccc1)C(=O)N[C@@H](CO)C(=O)N1CCC[C@H]1C(=O)NCC(=O)N[C@@H](Cc1c[nH]c2ccccc12)C(N)=O` [Manto-CC, pQVNFSPGWamide] ([pGlu]VNFSPGW-NH2): the “EC50 values (in words)” value in assay [1] is “more or less the same as for Anaim-AKH”. Besides, in assay [1] (setting [2]), the EC50 is 0.1 nM.

Regarding pQTFQYSRGWTNamide [Dappu-Crz], the “activation of Dappu-RPCHR (in words)” value in assay [1] (Locmi-ACP statement at 10 µM) is listed as “did not activate the receptor; also recorded: could not activate the Dappu-RPCHR at all”.

In turn, `CC(=O)N[C@@H](C)C(=O)N[C@H](C(=O)N[C@@H](CC(N)=O)C(=O)N[C@@H](Cc1ccccc1)C(=O)N[C@@H](CO)C(=O)N[C@H](C(=O)N[C@@H](CO)C(=O)N[C@@H](Cc1c[nH]c2ccccc12)C(N)=O)[C@@H](C)O)C(C)C` [[N-Ac-Ala^1]Dappu-RPCH, [NAc-Ala]-VNFSTSWamide] (Ac-AVNFSTSW-NH2) showed an EC50 in assay [1] (setting [3]) of 48.7 nM. Also, the “fold lower affinity / potency relative to Dappu-RPCH” value in assay [1] is listed as 750 fold.

Consider `CC(C)[C@H](NC(=O)[C@@H]1CCC(=O)N1)C(=O)N[C@@H](CC(N)=O)C(=O)N[C@@H](Cc1ccccc1)C(=O)N[C@@H](CO)C(=O)N[C@H](C(=O)NCC(=O)N[C@@H](Cc1c[nH]c2ccccc12)C(N)=O)[C@@H](C)O` [Grybi-AKH, pQVNFSTGWamide] ([pGlu]VNFSTGW-NH2), for which the EC50 in assay [1] is 0.067 nM; in assay [1] (setting [2]) it was 0.0667 nM.

`CC(C)[C@H](NC(=O)[C@@H]1CCC(=O)N1)C(=O)N[C@@H](CC(N)=O)C(=O)N[C@@H](Cc1ccccc1)C(=O)N[C@@H](CO)C(=O)N[C@H](C(=O)N[C@@H](CO)C(=O)N[C@@H](Cc1c[nH]c2ccccc12)C(=O)O)[C@@H](C)O` [[Trp-OH]Dappu-RPCH, pQVNFSTSW-OH] ([pGlu]VNFSTSW-OH) displayed an EC50 in assay [1] (setting [3]) of 17.4 nM. Also, the “fold lower affinity / potency relative to Dappu-RPCH” value in assay [1] came out at 270 fold.

Take `CC(C)[C@H](NC(=O)[C@@H]1CCC(=O)N1)C(=O)N[C@@H](CC(N)=O)C(=O)N[C@@H](Cc1ccccc1)C(=O)N[C@@H](CO)C(=O)N1CCC[C@H]1C(=O)N[C@@H](CC(N)=O)C(=O)N[C@@H](Cc1c[nH]c2ccccc12)C(N)=O` [Peram-CAH-I, pQVNFSPNWamide] ([pGlu]VNFSPNW-NH2): the “EC50 values (in words)” value in assay [1] is recorded as “more or less the same as for Anaim-AKH”. Further, in assay [1] (setting [2]), the EC50 was 0.393 nM.

Turning to `CC(C)[C@H](NC(=O)[C@@H]1CCC(=O)N1)C(=O)N[C@@H](CC(N)=O)C(=O)N[C@@H](Cc1ccccc1)C(=O)N[C@@H](CO)C(=O)N[C@H](C(=O)N[C@@H](CO)C(=O)N[C@@H](C)C(N)=O)[C@@H](C)O` [[Ala^8]Dappu-RPCH, pQVNFSTSAamide] ([pGlu]VNFSTSA-NH2), the EC50 in assay [1] (setting [3]) was found to be 131 nM.

As for `CC(C)C[C@H](NC(=O)[C@@H]1CCC(=O)N1)C(=O)N[C@@H](CC(N)=O)C(=O)N[C@@H](Cc1ccccc1)C(=O)N[C@@H](CO)C(=O)N[C@H](C(=O)NCC(=O)N[C@@H](Cc1c[nH]c2ccccc12)C(N)=O)[C@@H](C)O` [Schgr-AKH-II, pQLNFSTGWamide] ([pGlu]LNFSTGW-NH2), in assay [1] (setting [2]), the EC50 is 0.237 nM. In addition, the “fold lower affinity / potency relative to Dappu-RPCH” value in assay [1] is “about 4 fold”.

As to `CC(C)[C@H](NC(=O)[C@@H]1CCC(=O)N1)C(=O)N[C@@H](CC(N)=O)C(=O)N[C@@H](Cc1ccccc1)C(=O)N[C@@H](CO)C(=O)N1CCC[C@H]1C(=O)N[C@@H](CO)C(=O)N[C@@H](Cc1c[nH]c2ccccc12)C(N)=O` [Anaim-AKH, pQVNFSPSWamide] ([pGlu]VNFSPSW-NH2), in assay [1] (setting [2]), the EC50 is 0.224 nM.

Regarding `C[C@H](NC(=O)[C@@H]1CCC(=O)N1)C(=O)N[C@@H](CC(N)=O)C(=O)N[C@@H](Cc1ccccc1)C(=O)N[C@@H](CO)C(=O)N[C@H](C(=O)N[C@@H](CO)C(=O)N[C@@H](Cc1c[nH]c2ccccc12)C(N)=O)[C@@H](C)O` [[Ala^2]Dappu-RPCH, pQANFSTSWamide] ([pGlu]ANFSTSW-NH2), in assay [1] (setting [3]), the EC50 turned out to be 17.7 nM.

For the compound `CC(C)C[C@H](NC(=O)[C@@H]1CCC(=O)N1)C(=O)N[C@@H](CC(N)=O)C(=O)N[C@@H](Cc1ccccc1)C(=O)N[C@@H](CO)C(=O)N1CCC[C@H]1C(=O)N[C@@H](CO)C(=O)N[C@@H](Cc1c[nH]c2ccccc12)C(N)=O` [Corpu-AKH, pQLNFSPSWamide] ([pGlu]LNFSPSW-NH2), in assay [1], the “EC50 values (in words)” value is “more or less the same as for Anaim-AKH”. In assay [1] (setting [2]), the EC50 is 0.212 nM.
